Reference: patent US8492555B2, “Salts of isobutyric acid (1 R*, 2R*, 4R*)-2-(2-{[3-(4,7-dimethoxy-1 H-benzoimidazol-2-yl)-methyl-amino}-ethyl)-5-phenyl-bicyclo[2.2.2]oct-5-en-2-yl ester” (Actelion Pharmaceuticals Ltd., priority 2008, dated 2013)

Columns and labels:
[1] = Hygroscopicity by scanned gravimetric vapour sorption; type: physicochemical; settings: upwards scan; for Hygroscopicity classification: European Pharmacopea Technical Guide (1999), 40% to 80% relative humidity; for Hygroscopicity mass change: between 40% and 80% relative humidity
Source text: The mass change between 40% relative humidity and 80% relative humidity in the upwards scan was considered.

human Cav1.2 channel = target: T1, human Cav1.2 channel (Homo sapiens, UniProt Q13936); test: In vitro assay L channel (FLIPR, KCl-induced calcium fluorescence); type: cell-based; settings: HEK293 cells expressing human Cav1.2 with β-2a and α2δ-1; 20 mM KCl; read-out: L channel antagonistic activity IC50
T1 construct: expressed in transfected cells; host or cells: HEK293
T1 sequence (Q13936 whole entry): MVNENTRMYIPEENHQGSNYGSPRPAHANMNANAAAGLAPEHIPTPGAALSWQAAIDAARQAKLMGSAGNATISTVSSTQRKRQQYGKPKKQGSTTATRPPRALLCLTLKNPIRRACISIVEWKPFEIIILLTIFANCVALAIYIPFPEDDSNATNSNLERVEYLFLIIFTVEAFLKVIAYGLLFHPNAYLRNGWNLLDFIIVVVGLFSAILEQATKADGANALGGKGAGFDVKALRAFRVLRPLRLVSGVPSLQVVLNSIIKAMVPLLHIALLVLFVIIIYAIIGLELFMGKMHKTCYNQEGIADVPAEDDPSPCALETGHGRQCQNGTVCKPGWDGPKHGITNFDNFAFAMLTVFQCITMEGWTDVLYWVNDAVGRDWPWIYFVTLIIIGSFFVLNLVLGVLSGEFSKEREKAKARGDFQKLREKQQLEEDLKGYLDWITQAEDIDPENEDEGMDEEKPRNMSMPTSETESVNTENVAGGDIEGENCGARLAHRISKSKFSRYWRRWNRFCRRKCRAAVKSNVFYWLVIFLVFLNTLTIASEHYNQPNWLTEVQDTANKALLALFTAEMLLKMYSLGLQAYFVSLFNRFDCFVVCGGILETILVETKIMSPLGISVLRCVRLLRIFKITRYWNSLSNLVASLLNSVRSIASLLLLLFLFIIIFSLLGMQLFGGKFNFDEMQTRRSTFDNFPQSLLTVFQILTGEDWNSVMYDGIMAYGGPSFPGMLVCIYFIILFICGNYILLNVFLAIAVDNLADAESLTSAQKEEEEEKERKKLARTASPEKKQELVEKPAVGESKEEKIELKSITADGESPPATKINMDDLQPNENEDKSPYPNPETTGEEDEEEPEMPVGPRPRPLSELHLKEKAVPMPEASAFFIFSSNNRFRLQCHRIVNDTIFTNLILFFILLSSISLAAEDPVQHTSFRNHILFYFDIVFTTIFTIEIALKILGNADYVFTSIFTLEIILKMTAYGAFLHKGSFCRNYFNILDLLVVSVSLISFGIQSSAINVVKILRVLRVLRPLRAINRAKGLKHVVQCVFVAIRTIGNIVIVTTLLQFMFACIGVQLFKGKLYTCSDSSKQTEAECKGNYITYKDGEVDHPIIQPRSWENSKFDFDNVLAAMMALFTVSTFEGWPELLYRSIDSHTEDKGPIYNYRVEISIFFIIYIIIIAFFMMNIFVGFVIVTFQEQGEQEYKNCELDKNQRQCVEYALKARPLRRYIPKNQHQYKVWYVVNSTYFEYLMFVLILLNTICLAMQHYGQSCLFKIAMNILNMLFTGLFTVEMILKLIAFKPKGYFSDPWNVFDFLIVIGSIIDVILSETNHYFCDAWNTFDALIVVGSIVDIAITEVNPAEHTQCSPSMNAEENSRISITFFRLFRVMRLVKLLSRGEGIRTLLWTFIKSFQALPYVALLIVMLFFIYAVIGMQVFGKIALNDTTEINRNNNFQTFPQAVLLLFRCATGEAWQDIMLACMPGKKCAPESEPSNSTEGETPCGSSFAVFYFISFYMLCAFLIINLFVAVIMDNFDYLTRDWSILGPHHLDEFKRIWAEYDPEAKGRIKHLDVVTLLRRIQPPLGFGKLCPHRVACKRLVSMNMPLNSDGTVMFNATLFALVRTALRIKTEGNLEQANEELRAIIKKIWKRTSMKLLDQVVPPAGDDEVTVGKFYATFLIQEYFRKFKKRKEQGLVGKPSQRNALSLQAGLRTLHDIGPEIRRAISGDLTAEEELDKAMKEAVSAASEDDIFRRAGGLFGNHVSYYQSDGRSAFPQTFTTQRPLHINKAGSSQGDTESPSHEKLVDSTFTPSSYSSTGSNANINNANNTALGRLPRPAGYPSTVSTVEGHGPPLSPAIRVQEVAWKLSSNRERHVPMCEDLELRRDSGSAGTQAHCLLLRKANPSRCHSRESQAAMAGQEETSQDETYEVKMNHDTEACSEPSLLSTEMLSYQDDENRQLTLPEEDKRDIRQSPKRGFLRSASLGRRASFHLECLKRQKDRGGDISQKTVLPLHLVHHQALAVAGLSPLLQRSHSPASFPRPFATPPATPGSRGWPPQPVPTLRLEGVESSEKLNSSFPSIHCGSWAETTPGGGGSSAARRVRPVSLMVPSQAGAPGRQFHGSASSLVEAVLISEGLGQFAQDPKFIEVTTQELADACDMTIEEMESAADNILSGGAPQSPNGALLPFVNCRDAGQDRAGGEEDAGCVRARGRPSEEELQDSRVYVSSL
T1 sequence (Q08289 whole entry partner): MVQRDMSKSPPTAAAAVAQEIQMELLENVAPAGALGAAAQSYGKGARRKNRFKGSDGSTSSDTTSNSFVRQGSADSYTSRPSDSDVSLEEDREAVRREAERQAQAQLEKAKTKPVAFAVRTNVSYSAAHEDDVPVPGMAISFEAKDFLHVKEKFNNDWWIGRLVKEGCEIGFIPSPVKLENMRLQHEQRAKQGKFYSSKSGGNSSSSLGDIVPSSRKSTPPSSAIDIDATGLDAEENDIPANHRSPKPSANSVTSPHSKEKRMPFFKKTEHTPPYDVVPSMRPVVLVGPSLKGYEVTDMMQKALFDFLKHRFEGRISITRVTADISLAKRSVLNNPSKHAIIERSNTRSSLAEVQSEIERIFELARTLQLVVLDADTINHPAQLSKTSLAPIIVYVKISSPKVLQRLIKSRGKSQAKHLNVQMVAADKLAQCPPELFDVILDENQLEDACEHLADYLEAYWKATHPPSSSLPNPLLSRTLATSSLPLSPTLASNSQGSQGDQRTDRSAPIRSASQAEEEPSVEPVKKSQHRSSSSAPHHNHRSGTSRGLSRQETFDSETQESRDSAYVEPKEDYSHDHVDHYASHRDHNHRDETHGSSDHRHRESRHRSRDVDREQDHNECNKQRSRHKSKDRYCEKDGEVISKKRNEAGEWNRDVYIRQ
T1 sequence (P54289 25-946 partner limits assumed): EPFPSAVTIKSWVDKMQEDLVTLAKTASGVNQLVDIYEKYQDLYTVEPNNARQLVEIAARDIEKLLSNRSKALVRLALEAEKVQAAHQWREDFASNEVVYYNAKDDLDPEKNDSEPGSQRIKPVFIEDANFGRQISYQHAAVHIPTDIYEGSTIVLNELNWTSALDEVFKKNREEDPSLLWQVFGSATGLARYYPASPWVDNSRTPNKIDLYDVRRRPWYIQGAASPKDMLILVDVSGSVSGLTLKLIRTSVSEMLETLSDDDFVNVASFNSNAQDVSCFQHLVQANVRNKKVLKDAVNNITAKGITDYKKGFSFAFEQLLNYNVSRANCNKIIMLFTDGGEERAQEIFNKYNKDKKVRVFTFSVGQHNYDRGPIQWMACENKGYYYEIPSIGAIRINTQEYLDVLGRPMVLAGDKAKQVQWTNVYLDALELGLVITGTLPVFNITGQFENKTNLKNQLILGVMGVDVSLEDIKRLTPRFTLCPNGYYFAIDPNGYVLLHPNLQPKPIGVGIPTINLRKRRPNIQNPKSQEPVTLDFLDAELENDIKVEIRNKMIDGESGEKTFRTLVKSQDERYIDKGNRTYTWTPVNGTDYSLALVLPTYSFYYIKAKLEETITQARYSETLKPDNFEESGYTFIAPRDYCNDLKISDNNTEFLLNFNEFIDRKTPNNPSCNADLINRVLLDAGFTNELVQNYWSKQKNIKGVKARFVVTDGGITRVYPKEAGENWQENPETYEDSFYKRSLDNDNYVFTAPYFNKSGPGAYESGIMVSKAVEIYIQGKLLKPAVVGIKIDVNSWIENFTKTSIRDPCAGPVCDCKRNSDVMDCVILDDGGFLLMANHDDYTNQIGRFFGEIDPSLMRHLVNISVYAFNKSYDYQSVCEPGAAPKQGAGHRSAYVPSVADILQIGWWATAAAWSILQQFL
T1 sequence (P54289 947-1103 partner limits assumed): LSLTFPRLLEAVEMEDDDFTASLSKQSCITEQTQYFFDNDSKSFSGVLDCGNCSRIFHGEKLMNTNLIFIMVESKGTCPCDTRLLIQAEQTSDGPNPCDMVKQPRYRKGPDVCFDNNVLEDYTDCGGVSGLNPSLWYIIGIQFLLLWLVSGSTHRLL
Experimental: The L channel antagonistic activity (IC50 values) of Reference Examples 1A, 2A, and 3A is determined in accordance with the following experimental method.
Human embryonic kidney (HEK293) cells expressing the human Cav1.2 channel in addition to the auxiliary subunits β-2a and α2δ-1, are grown in culture medium (DMEM containing 10% heat-inactivated fetal calf serum (FCS), 100 U/ml penicillin, 100 μg/ml streptomycin, 100 μg/ml G418, 40 μg/ml zeocin and 100 μg/ml hygromycin). The cells are seeded at 20.000 cells/well into 384-well black clear bottom sterile plates (poly-L-lysine-coated, Becton Dickinson). The seeded plates are incubated overnight at 37° C. in 5% CO2. The KCl solution is prepared as 80 mM stock solution in assay buffer (HBSS containing 0.1% BSA, 20 mM HEPES, 0.375 g/l NaHCO3, adjusted to pH 7.4 with NaOH) for use in the assay at a final concentration of 20 mM. Antagonists are prepared as 10 mM stock solutions in DMSO, then diluted in 384 w plates first in DMSO, then in assay buffer to obtain 3× stocks. On the day of the assay, 25 μl of staining buffer (HBSS containing 20 mM HEPES, 0.375 g/l NaHCO3, and 3 μM of the fluorescent calcium indicator fluo-4 AM (1 mM stock solution in DMSO, containing 10% pluronic) is added to each well of the seeded plate. The 384-well cell-plates are incubated for 60 min at 37° C. in 5% CO2 followed by washing with 2×50 μl per well using assay buffer leaving 50 μl/well of this buffer for equilibration at room temperature (30-60 min). Within the Fluorescent Imaging Plate Reader (FLIPR, Molecular Devices), antagonists are added to the plate in a volume of 25 μl/well, incubated for 3 min and finally 25 μl/well of KCl solution is added for cellular depolarization. Fluorescence is measured for each well at 2 second intervals for 8 minutes, and the area under the curve of each fluorescence peak is compared to the area of the fluorescence peak induced by 20 mM KCl with vehicle in place of antagonist. […]

isolated mouse hearts = test: Effect on isolated hearts according to the Langendorff method; settings: read-out: EC50 Langendorff experiment
Experimental: Effect on Isolated Hearts According to the Langendorff Method (Lgdff)
The Reference Examples 1A, 2A, and 3A were tested for their potential to reduce blood pressure and their effect on the contractility of the heart muscle. EC50 values on isolated mouse hearts were determined according to Literature (Doring H J., The isolated perfused heart according to Langendorff technique—function—application, Physiol. Bohemoslov. 1990, 39(6), 481-504; Kligfield P, Homer H, Brachfeld N., A model of graded ischemia in the isolated perfused rat heart, J. Appl. Physiol. 1976 June, 40(6), 1004-8).

EC50 (isolated mouse hearts) [nM]	Compound	Hygroscopicity classification [1]	Hygroscopicity mass change [1]	IC50 (human Cav1.2 channel) [nM]
	COc1ccc(OC)c2[nH]c(CCCN(C)CCC3(OC(=O)C(C)C)CC4CCC3C=C4c3ccccc3)nc12.O=C(O)/C=C\C(=O)O.O=C(O)/C=C\C(=O)O (stereo not drawn) [di-maleic acid salt of COMPOUND]	Non hygroscopic	0.1%	
5	COc1ccc(OC)c2[nH]c(CCCN(C)CC[C@]3(OC(=O)C(C)C)C[C@H]4CC[C@@H]3C=C4c3ccccc3)nc12 (racemic) [Reference Example 1A, rac-Isobutyric acid (1R*,2R*,4R*)-2-(2-{[3-(4,7-dimethoxy-1H-benzoimidazol-2-yl)-propyl]-methyl-amino}-ethyl)-5-phenyl-bicyclo[2.2.2]oct-5-en-2-yl ester]			156 to 439
	COc1ccc(OC)c2[nH]c(CCCN(C)CCC3(OC(=O)C(C)C)CC4CCC3C=C4c3ccccc3)nc12.COc1ccc(OC)c2[nH]c(CCCN(C)CCC3(OC(=O)C(C)C)CC4CCC3C=C4c3ccccc3)nc12.O=C(O)/C=C/C(=O)O.O=C(O)/C=C/C(=O)O.O=C(O)/C=C/C(=O)O (stereo not drawn) [sesqui-fumaric acid salt of COMPOUND]	Non hygroscopic	0.1%	
	Br.Br.COc1ccc(OC)c2[nH]c(CCCN(C)CCC3(OC(=O)C(C)C)CC4CCC3C=C4c3ccccc3)nc12 (stereo not drawn) [di-hydrobromic acid salt of COMPOUND]	Non hygroscopic	0.1%	
	COc1ccc(OC)c2[nH]c(CCCN(C)CCC3(OC(=O)C(C)C)CC4CCC3C=C4c3ccccc3)nc12.Cl.Cl (stereo not drawn) [di-hydrochloric acid salt of COMPOUND]	Slightly hygroscopic (mass	change 0.5%)	
	COc1ccc(OC)c2[nH]c(CCCN(C)CC[C@@]3(OC(=O)C(C)C)C[C@@H]4CC[C@H]3C=C4c3ccccc3)nc12 [Reference Example 2A, Isobutyric acid (1S,2S,4S)-2-(2-{[3-(4,7-dimethoxy-1H-benzoimidazol-2-yl)-propyl]-methyl-amino}-ethyl)-5-phenyl-bicyclo[2.2.2]oct-5-en-2-yl ester]			156 to 439
	COc1ccc(OC)c2[nH]c(CCCN(C)CC[C@]3(OC(=O)C(C)C)C[C@H]4CC[C@@H]3C=C4c3ccccc3)nc12 [Reference Example 3A, Isobutyric acid (1R,2R,4R)-2-(2-{[3-(4,7-dimethoxy-1H-benzoimidazol-2-yl)-propyl]-methyl-amino}-ethyl)-5-phenyl-bicyclo[2.2.2]oct-5-en-2-yl ester]			156 to 439
